The record followed here is article PMC3393737 (PLoS ONE, 2012).

Structures can show the parent of a compound that is named as a salt.

For the test, the target named is T1, ABCB6 (ABCB6-flag) (Homo sapiens, UniProt Q9NP58).
T1 construct: wild-type ABCB6, C-terminal FLAG tag kept; stably expressed (CMV promoter) in K562 cells (whole cells, mitochondria)
T1 sequence (Q9NP58 1-842): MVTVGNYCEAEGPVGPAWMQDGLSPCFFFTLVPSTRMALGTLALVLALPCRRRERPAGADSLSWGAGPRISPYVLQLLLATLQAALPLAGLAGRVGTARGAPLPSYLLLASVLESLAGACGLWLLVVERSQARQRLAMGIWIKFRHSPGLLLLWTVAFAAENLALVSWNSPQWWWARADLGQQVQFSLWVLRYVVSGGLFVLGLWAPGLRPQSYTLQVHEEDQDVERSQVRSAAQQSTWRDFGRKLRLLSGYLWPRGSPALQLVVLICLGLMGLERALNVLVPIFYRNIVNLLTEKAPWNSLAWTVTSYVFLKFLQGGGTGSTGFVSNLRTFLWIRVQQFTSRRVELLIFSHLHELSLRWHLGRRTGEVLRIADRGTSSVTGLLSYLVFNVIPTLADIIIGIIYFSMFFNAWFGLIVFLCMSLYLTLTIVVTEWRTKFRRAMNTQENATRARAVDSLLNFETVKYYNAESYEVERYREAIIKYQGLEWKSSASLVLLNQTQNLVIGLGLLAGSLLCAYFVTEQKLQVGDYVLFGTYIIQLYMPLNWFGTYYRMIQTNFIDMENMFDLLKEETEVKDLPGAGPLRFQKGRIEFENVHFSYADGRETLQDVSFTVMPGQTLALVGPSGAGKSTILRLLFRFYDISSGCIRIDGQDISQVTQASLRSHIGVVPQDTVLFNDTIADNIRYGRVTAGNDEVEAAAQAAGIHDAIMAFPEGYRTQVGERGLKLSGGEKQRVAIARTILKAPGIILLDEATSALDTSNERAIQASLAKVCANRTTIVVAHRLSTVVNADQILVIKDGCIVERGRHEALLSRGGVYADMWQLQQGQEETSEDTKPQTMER
The test can be described thus: displacement of ABCB6 from hemin-agarose (mitochondrial fraction; dose dependent also with purified ABCB6-flag). Type of test: binding.

Regarding `C[C@H]1CC[C@]2(NC1)O[C@H]1C[C@H]3[C@@H]4CC[C@H]5C[C@@H](O[C@@H]6O[C@H](CO)[C@H](O[C@@H]7O[C@H](CO)[C@@H](O)[C@H](O[C@@H]8OC[C@@H](O)[C@H](O)[C@H]8O)[C@H]7O[C@@H]7O[C@H](CO)[C@@H](O)[C@H](O)[C@H]7O)[C@H](O)[C@H]6O)CC[C@]5(C)[C@H]4CC[C@]3(C)[C@H]1[C@@H]2C` [THC, tomatine hydrochloride], the inhibition at 5 µM was above 50%.
